Experimental data from patent US6521643B1, “Pyridine compounds and their pharmaceutical use” (Fujisawa Pharmaceutical Co., Ltd., priority 1999, dated 2003).
Counter-ions that a name gives are not always drawn.

Tests used:
[1] = target: T1, Nitric Oxide Synthase (NOS) (Rattus norvegicus, UniProt P29476); test: Binding assay using nitric oxide synthase (NOS), crude preparation from rat brain cytosol, [3H]Na radioligand; conditions: test compound 10^−4M, brain cytosol of male SD rats, 10 nM [^3H]Na, 27° C., 90 minutes; for inhibition: read-out: Inhibition (%) of specific binding
T1 construct: each drug was incubated with the brain cytosol (200 μg protein/tube); from tissue; host or cells: whole brain (including cerebellum) of male SD rats, cytosolic supernatant (48,000 x g), passed through Dowex AG50WX-8
Procedure: Test: Binding Assay Using Nitric Oxide Synthase (NOS)
A crude preparation of NOS was obtained from brains of male SD rats. The whole brain (including cerebellum) was homogenized with 5 volume (W/V) of 50 mM Tris buffer (pH 7.0 at 4° C.) and centrifuged at 48,000×g for 20 minutes. The pellet was discarded and the supernatant was passed through ¼ volume (V/V) of Dowex AG50WX-8 resin (Na^+ form), in order to remove endogenous arginine. The supernatant was collected, the pH was adjusted to 7.0 at 22° C., and this cytosolic preparation was frozen and stored at −80° C. until required. In the binding assay, each drug was incubated with the brain cytosol (200 μg protein/tube) in 0.15 ml (final volume) of 50 mM Tris buffer containing 10 μM CaCl2 and 10 nM [^3H]Na (Amersham, UK). Incubation was performed at 27° C. for 90 minutes and terminated by vacuum filtration through 0.3% polyethyleneimine pretreated GF/B glass fibre filters which were subsequently washed with distilled water (4° C., 4 ml×4). Nonspecific binding was defined by use of […] Na. Data are expressed as inhibition % of specific binding.

inhibition [1] [%] | SMILES | further results
99 | COc1ccnc(-c2sc(NC(=N)N)nc2C)c1 [(a), 2-Guanidino-4-methyl-5-(4-methoxypyridin-2-yl)thiazole] | 
 | COc1ccnc(-c2ccc(C)c(NC(=N)N)c2)c1.Cl.Cl [(b), (5-(4-Methoxypyridin-2-yl)-2-methylphenyl)guanidine dihydrochloride] | Inhibition (%) of specific binding [1]: 98.9%
100 | CCSC(=N)Nc1cccc(-c2cc(OC)ccn2)c1 [(c), N-(3-(4-Methoxypyridin-2-yl)phenyl)-S-ethylisothiourea dihydrochloride] | 
99.3 | COc1ccnc(-c2ccc3ccc(N)nc3c2)c1 [(d), 2-Amino-7-(4-methoxypyridin-2-yl)quinoline dihydrochloride] | 
98 | Cc1ccnc(-c2ccc3ccc(N)nc3c2)c1 [(e), 2-Amino-7-(4-methylpyridin-2-yl)quinoline dihydrochloride] | 
99.4 | CNc1ccc2ccc(-c3cc(OC)ccn3)cc2n1 [(f), 7-(4-Methoxypyridin-2-yl)-2-methylaminoquinoline dihydrochloride] | 
 | Cc1ccnc(C(O)c2sc(NC(=N)N)nc2C)c1 (centres unmarked) [Example 24, N-(5-(hydroxy-(4-methylpyridin-2-yl)methyl)-4-methylthiazol-2-yl)guanidine] | melting point: 150.5 to 151.5 °C
 | CC(=O)NC(c1cc(C)ccn1)c1sc(NC(=N)N)nc1C (centres unmarked) [Example 26, N-(5-(acetylamino-(4-methylpyridin-2-yl)methyl)-4-methylthiazol-2-yl)-guanidine] | melting point: 239 to 240 °C
